Columns and labels:
Type in all cases: cell-based
mouse TGR5 receptor [1] = target: T1, mouse TGR5 receptor (Mus musculus, UniProt Q80SS6); assay: Mouse TGR5 luminescent cAMP production assay (HEK293-EBNA cells, DiscoveRx cAMP XS+ kit); conditions: HEK293-EBNA cells overexpressing mouse TGR5, luminescent cAMP assay; read-out: Mouse TGR5 Lum. cAMP Activity (EC50)
T1 construct: host or cells: HEK293-EBNA (293 c18, ATCC CRL10852)
T1 sequence (Q80SS6 1-329): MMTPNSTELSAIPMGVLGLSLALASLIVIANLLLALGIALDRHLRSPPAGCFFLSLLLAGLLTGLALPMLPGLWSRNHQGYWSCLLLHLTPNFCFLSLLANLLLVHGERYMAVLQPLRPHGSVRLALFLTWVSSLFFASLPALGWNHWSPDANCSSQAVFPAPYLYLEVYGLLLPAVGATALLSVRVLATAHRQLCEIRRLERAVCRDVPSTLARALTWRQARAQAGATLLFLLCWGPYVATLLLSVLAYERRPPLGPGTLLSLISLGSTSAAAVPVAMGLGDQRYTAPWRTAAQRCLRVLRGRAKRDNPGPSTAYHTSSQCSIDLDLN
Method: Mouse TGR5 cAMP Production Assay
Compounds of the present invention were evaluated for their ability to induce cAMP production in HEK-EBNA cells overexpressing the mouse TGR5 receptor. Human embryonic kidney cells (HEK293-EBNA) stably expressing mouse TGR5 receptor were established using the following procedure. Specifically, a commercially obtained gene encoding mouse TGR5 (accession number BC116914) from Thermo Scientific (Waltham, Mass.) was cloned into an episomal expression vector. The resulting expression plasmid was then transfected into 293 c18 (ATCC® CRL10852™) cells, which express the Epstein-Barr virus nuclear antigen EBNA1 and can support the replication of episomal vectors. Selection for the plasmid was maintained with Hygromycin B. Cells were cultured and maintained in DMEM (Sigma; cat #6429) supplemented with 10% Fetal Bovine Serum, 1% penicillin/streptomycin, 2 mM L-alanine L-glutamine (GlutaMax), and 250 μg/mL Hygromycin.
We developed two cAMP production assays.
(i) Luminescent cAMP Production Assay
In this first cAMP production assay, the cAMP production was measured using DiscoveRx's cAMP XS+ kit following the manufacturer's recommended protocol. Briefly, HEK293-EBNA cells stably overexpressing mouse TGR5 were harvested using non-enzymatic cell dissociation buffer (Sigma-Aldrich, St. Louis, Mo.), spun down, then resuspended in serum-free DMEM with 500 μM IBMX at a density of 1.25×10^6 cells/mL. 500 μL of cAMP antibody solution was added to 500 μL of cell suspension and incubated at room temperature for 20 min.
Test compounds were serially diluted (half-log dilutions) in DMSO and then further diluted 1:50 in PBS, 10 mM HEPES buffer. 2 μL of serially diluted compound was added to a 384-well low volume plate (Greiner cat #784075) and centrifuged briefly. 2 μl of the cell/cAMP antibody mixture was then added to each compound-containing well and allowed to incubate at room temperature for one (1) hour. Following incubation, the XS+ kits' ED/Lysis/CL Substrate Working Solution was prepared following the manufacturer's recommended protocol and 4 μL was added to each well of the plate. The plate was then incubated for one (1) hour at room temperature. Following incubation, 4 μL of (Enzyme Acceptor) EA reagent was added to the plate and allowed to incubate overnight at room temperature. Luminescent signal was then detected using the Viewlux instrument (PerkinElmer, Waltham, Mass.).
In Table 52, EC50 values for both human and mouse cells were determined according to the TGR5 cAMP assays described above. […]

human TGR5 receptor = target: T2, human TGR5 receptor (Homo sapiens, UniProt Q8TDU6); assay: Human TGR5 cAMP production assay (hTGR5-CHO cells, DiscoveRx cAMP XS+ kit); conditions: luminescent cAMP assay, read-out: Human TGR5 Lum. cAMP Activity (EC50)
T2 construct: host or cells: CHO-K1 (hTGR5-CHO)
T2 sequence (Q8TDU6 1-330): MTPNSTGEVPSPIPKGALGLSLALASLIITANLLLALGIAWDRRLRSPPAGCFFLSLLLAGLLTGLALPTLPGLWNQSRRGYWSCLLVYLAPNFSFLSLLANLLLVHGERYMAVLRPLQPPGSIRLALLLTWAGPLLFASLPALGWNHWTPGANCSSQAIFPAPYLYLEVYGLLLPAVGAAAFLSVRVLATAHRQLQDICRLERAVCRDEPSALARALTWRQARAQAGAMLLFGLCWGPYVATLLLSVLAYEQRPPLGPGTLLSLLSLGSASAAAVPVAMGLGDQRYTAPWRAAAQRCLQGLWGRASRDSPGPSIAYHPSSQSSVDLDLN
How it was run: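 CHO-K1 cells stably expressing hTGR5, in PBS with IBMX and cAMP antibody, treated with half-log compound dilutions for 1 h at room temperature. cAMP measured by enzyme-fragment complementation luminescence after overnight detection; EC50 values reported.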

mouse TGR5 receptor [2] = target: T1, mouse TGR5 receptor; assay: Mouse TGR5 HTRF cAMP production assay (HEK293-EBNA cells, Cisbio cAMP HiRange kit); conditions: HEK293-EBNA cells overexpressing mouse TGR5, HTRF cAMP assay
How it was run: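 HEK293-EBNA cells stably expressing mouse TGR5 (episomal vector) were suspended in serum-free DMEM with 500 μM IBMX and exposed to 12-point half-log compound dilutions for 1 h at room temperature. cAMP was detected by HTRF (d2-cAMP/anti-cAMP cryptate, 1 h, room temperature), giving EC50 from duplicates.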

Mouse STC-1 cells = assay: STC-1 GLP-1 assay (GLP-1 secretion); conditions: Mouse STC-1 cells, GLP-1 secretion, 2 h; read-out: Mouse STC-1 HTRF GLP-1 Activity (EC50)
Method: Compounds of the present invention were evaluated for their ability to induce GLP-1 production in mouse intestinal neuroendocrine tumor cells.
Mouse STC-1 cells were cultured and maintained in high glucose DMEM (Sigma #5796) supplemented with 15% horse serum, 5% Fetal Bovine Serum (FBS), 1%° penicillin/streptomycin, and 2 mM L-alanine L-glutamine (GlutaMax). Two days prior to analysis of GLP-1 secretion cells were harvested using Accutase (Sigma), spun down then resuspended in high glucose DMEM media containing 2 mM L-alanine L-glutamine (GlutaMax), 10% charcoal-dextran stripped FBS, and 50 μg/mL Gentamicin, at a density of 100,000° cells/mL. 100 μL of cell suspension was added to each well of a 96-well Poly-D-Lysine coated culture plate (Sigma; cat #2382493) and was incubated at 37° C. with 5% CO2.
Compounds were initially diluted in 100% DMSO (12-point serial dilution by half logs) in a 96-well plate and then were further diluted 1:500 in Hanks' Balanced Salt Solution (HBSS) containing protease inhibitor cocktail, DPP-IV inhibitor, and 0.1% fatty acid free bovine serum albumin. On the day of the experiment cells were washed once with HBSS. After wash, 100 μL of test compound was added to each well. The plate was incubated at 37° C. with 5% CO2 for 2° h. Supernatants were collected and GLP-1 secretion was measured using the Cisbio™ Active GLP-1 HTRF Assay Kit (CisBio). Briefly, Anti-GLP-1-d2 conjugate and Anti-GLP-1 Terbium Cryptate conjugate stock solutions were prepared as per kit instructions. The two solutions were pre-mixed and 10 μL were transferred to a 384-well low volume plate (Greiner; cat #784075). 10 μL of collected supernatants were added to wells already containing the conjugate solution. The plate was covered and incubated at room temperature overnight. The plate was read on an Envision™ plate reader (PerkinElmer).
In Table 53, EC50 values were obtained from the STC-1 GLP-1 production assay for compounds of the present invention are summarized.

Row | EC50 (mouse TGR5 receptor [1]) | EC50 (human TGR5 receptor) | EC50 (mouse TGR5 receptor [2]) | EC50 (Mouse STC-1 cells) | SMILES
1 | 0.1 to 0.999 µM | 0.1 to 0.999 µM |  |  | N#Cc1ccc(CCNC(=O)[C@@H]2CCCN2c2cc(-c3ccccc3)nc(C(F)(F)F)n2)cc1 [Compound 144, (S)-N-(4-cyanophenethyl)-1-(6-phenyl-2-(trifluoromethyl)pyrimidin-4-yl)pyrrolidine-2-carboxamide]
2 | 0.1 to 0.999 µM | 1 to 30 µM |  |  | O=C(NCCc1ccc(C(F)(F)F)cc1)[C@@H]1CCCN1c1cc(NCc2cccnc2)nc(C(F)(F)F)n1 [Compound 4]
3 | 1 to 30 µM | 1 to 30 µM |  |  | CNC(=O)c1cc(-c2cc(N3CCC[C@H]3C(=O)NCCc3ccc(C#N)cc3)nc(C(F)(F)F)n2)cs1 [Compound 179, (S)—N-(4-cyanophenethyl)-1-(6-(5-(methylcarbamoyl)thiophen-3-yl)-2-(trifluoromethyl)pyrimidin-4-yl)pyrrolidine-2-carboxamide]
4 | < 0.1 µM | 1 to 30 µM |  |  | CC(=O)N1CCC(Nc2cc(N3CCC[C@H]3C(=O)NCCc3ccc(C#N)cc3)nc(C(F)(F)F)n2)CC1 [Compound 53, (S)-1-(6-((1-acetylpiperidin-4-yl)amino)-2-(trifluoromethyl)pyrimidin-4-yl)-N-(4-cyanophenethyl)pyrrolidine-2-carboxamide]
5 | 0.1 to 0.999 µM | 1 to 30 µM |  |  | N#Cc1ccc(CCNC(=O)[C@@H]2CCN2c2cc(-c3cccnc3)nc(C(F)(F)F)n2)cc1 [Compound 305, (S)-N-(4-cyanophenethyl)-1-(6-(pyridin-3-yl)-2-(trifluoromethyl)pyrimidin-4-yl)azetidine-2-carboxamide]
6 | 0.1 to 0.999 µM | 1 to 30 µM |  |  | Cn1ccc2cc(-c3cc(N4CCC[C@H]4C(=O)NCCc4ccc(C#N)cc4)nc(C(F)(F)F)n3)ccc21 [Compound 169, (S)-N-(4-cyanophenethyl)-1-(6-(1-methyl-1H-indol-5-yl)-2-(trifluoromethyl)pyrimidin-4-yl)pyrrolidine-2-carboxamide]
7 | 0.1 to 0.999 µM | 1 to 30 µM |  |  | CS(=O)(=O)Nc1cccc(-c2cc(N3CCC[C@H]3C(=O)NCCc3ccc(C#N)cc3)nc(C(F)(F)F)n2)c1 [Compound 153, (S)-N-(4-cyanophenethyl)-1-(6-(3-(methylsulfonamido)phenyl)-2-(trifluoromethyl)pyrimidin-4-yl)pyrrolidine-2-carboxamide]
8 | 0.1 to 0.999 µM | 1 to 30 µM |  |  | N#Cc1ccc(CCNC(=O)[C@@H]2CCCN2c2cc(-c3ccc(CN4CCOCC4)s3)nc(C(F)(F)F)n2)cc1 [Compound 168, (S)-N-(4-cyanophenethyl)-1-(6-(5-(morpholinomethyl)thiophen-2-yl)-2-(trifluoromethyl)pyrimidin-4-yl)pyrrolidine-2-carboxamide]
9 | 0.1 to 0.999 µM | 0.1 to 0.999 µM |  |  | CN(C)CCN1CCN(c2cc(N3CCC[C@@H](C(=O)NCCc4ccc(C#N)cc4)C3)nc(C(F)(F)F)n2)CC1 [Compound 317, (R)-N-(4-cyanophenethyl)-1-(6-(4-(2-(dimethylamino)ethyl)piperazin-1-yl)-2-(trifluoromethyl)pyrimidin-4-yl)piperidine-3-carboxamide]
10 | < 0.1 µM | 0.1 to 0.999 µM |  |  | CN1CCC(Oc2cc(N3CCC[C@H]3C(=O)NCCc3ccc(C#N)cc3)nc(C(F)(F)F)n2)CC1 [Compound 39, (S)—N-(4-cyanophenethyl)-1-(6-((1-methylpiperidin-4-yl)oxy)-2-(trifluoromethyl)pyrimidin-4-yl)pyrrolidine-2-carboxamide]
11 | 0.1 to 0.999 µM | 1 to 30 µM |  |  | N#Cc1ccc(CCNC(=O)[C@@H]2CCCN2c2cc(-c3ccc(S(=O)(=O)N4CCOCC4)cc3)nc(C(F)(F)F)n2)cc1 [Compound 154, (S)-N-(4-cyanophenethyl)-1-(6-(4-(morpholinosulfonyl)phenyl)-2-(trifluoromethyl)pyrimidin-4-yl)pyrrolidine-2-carboxamide]
12 |  | 0.1 to 0.999 µM | < 0.1 µM | 0.1 to 0.999 µM | N[C@@H](CO)C(=O)N1CCN(c2cc(N3CCC[C@@H](C(=O)NCCc4ccc(C(F)(F)F)cc4)C3)nc(C(F)(F)F)n2)CC1 [Compound 342, (R)-1-(6-(4-((S)-2-amino-3-hydroxypropanoyl)piperazin-1-yl)-2-(trifluoromethyl)pyrimidin-4-yl)-N-(4-(trifluoromethyl)phenethyl)piperidine-3-carboxamide]
13 |  | < 0.1 µM | < 0.1 µM | 0.1 to 0.999 µM | COCCN1CCN(c2cc(N3CCC[C@@H](C(=O)NCCc4ccc(C(F)(F)F)cc4)C3)nc(C(F)(F)F)n2)CC1 [Compound 328, (R)-1-(6-(4-(2-methoxyethyl)piperazin-1-yl)-2-(trifluoromethyl)pyrimidin-4-yl)-N-(4-(trifluoromethyl)phenethyl)piperidine-3-carboxamide]
14 |  | < 0.1 µM | < 0.1 µM | 0.1 to 0.999 µM | N#Cc1ccc(CCNC(=O)[C@@H]2CCN2c2cc(N3CCC(CCC(=O)NCCS(=O)(=O)O)CC3)nc(C(F)(F)F)n2)cc1 [Compound 262]
15 |  | < 0.1 µM | < 0.1 µM | 0.1 to 0.999 µM | N#CCCN1CCN(c2cc(N3CC[C@H]3C(=O)NCCc3ccc(C#N)cc3)nc(C(F)(F)F)n2)CC1 [Compound 229, (S)-1-(6-(4-(2-cyanoethyl)piperazin-1-yl)-2-(trifluoromethyl)pyrimidin-4-yl)-N-(4-cyanophenethyl)azetidine-2-carboxamide]
